Measured values published in BindingDB's records for doi:10.1021/jm00075a026 (Solvay Duphar, 1994).
pKi: −log10 of the molar value.

Target: T1, Glycine receptor subunit alpha-4 (Mus musculus, UniProt Q61603)
T1 sequence (Q61603 whole entry): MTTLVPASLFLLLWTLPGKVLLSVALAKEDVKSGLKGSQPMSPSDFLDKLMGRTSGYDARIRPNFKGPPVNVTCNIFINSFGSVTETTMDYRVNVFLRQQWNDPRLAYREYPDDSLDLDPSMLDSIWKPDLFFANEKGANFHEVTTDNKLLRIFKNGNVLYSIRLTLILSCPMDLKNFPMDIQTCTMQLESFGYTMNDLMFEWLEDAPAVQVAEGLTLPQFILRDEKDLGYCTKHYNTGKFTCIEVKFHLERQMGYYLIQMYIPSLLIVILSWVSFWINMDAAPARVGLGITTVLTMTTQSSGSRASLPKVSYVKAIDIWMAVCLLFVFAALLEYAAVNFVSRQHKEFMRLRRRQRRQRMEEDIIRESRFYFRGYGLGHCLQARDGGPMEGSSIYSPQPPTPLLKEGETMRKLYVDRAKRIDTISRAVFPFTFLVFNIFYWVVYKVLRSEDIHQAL
Assay: ChEBML_219281
Description: The binding affinity was measured on glycine receptor using [3H]- strychnine as radioligand.

pKi: < 5.00
SMILES: Cc1nccn1CC1CCc2c(c3ccccc3n2C)C1=O (stereo unspecified) [NSC_68647]
